From patent US20060159669A1, “Novel uses of PPAR modulators and professional APCs manipulated by the same” (priority 2003, published 2006)
“Also recorded” adds a separate entry of the source.

Columns and labels:
[1] = target: T1, PPARg (Homo sapiens, UniProt P37231); assay: FABP4 and other PPARg target gene mRNA expression by real-time RT-PCR in differentiating monocyte-derived DC; format: cell-based; settings: for Induction of FABP4 by receptor-specific agonists: IDC, 2.5 microM RSG, 200 nM GW7845, 1 microM GW501516, 20 microM WY14643, 1 microM T0901317, FIG. 5A
T1 construct: endogenous in cells; host or cells: human monocyte-derived dendritic cells (CD14+ monocytes from buffy coats, GM-CSF + IL-4)
T1 sequence (P37231 1-505): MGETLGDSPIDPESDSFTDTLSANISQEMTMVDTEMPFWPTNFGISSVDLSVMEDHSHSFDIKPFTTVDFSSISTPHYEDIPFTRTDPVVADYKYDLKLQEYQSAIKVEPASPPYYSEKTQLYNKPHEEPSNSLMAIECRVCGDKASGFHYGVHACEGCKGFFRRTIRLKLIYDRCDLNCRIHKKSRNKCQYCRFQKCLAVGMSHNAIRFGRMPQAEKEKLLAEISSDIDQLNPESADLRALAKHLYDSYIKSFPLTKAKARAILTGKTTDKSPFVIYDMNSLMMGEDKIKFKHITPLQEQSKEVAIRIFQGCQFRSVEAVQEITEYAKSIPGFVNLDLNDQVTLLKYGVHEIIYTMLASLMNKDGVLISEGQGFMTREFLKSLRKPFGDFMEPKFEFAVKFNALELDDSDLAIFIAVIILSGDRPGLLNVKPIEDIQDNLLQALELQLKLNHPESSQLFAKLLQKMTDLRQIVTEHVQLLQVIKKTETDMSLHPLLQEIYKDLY
Description: DC generation and maturation. Highly enriched monocytes (98% CD14+) were obtained from buffy coats of healthy donors (provided by the local blood center) by Ficoll gradient centrifugation and immunomagnetic cell separation using anti-CD14-conjugated microbeads (VarioMACS; Miltenyi Biotec). […] Cells were cultured for 5 or 6 days and the IL-4 and GM-CSF addition was repeated at day 2 to obtain a population of immature DCs. In some experiments FBS was replaced with human AB serum (Sigma).
(§1) Ligands or vehicle control (50% DMSO/ethanol) were added to the cell culture starting from the first day.
(§2) Real-time RT-PCR. […] The following primers and probes were used: […]

[2] = test system: CD1d; assay: CD1d mRNA expression (RT-PCR, Affymetrix microarray) in monocyte-derived DC; format: cell-based, human; settings: IDC; for Induction of CD1d by receptor-specific agonists: 2.5 microM RSG, 200 nM GW7845, 1 microM GW501516, 20 microM WY14643, 1 microM T0901317, FIG. 5B
Description: DC generation and maturation. Highly enriched monocytes (98% CD14+) were obtained from buffy coats of healthy donors (provided by the local blood center) by Ficoll gradient centrifugation and immunomagnetic cell separation using anti-CD14-conjugated microbeads (VarioMACS; Miltenyi Biotec). Human monocyte-derived IDCs were prepared as described previously (Sallusto and Lanzavecchia, 1994) with minor modification. In brief, monocytes were resuspended into six-well culture dishes at a density of 1.5×10^6 cells/ml and cultured in RPMI 1640 supplemented with 10% FBS (Invitrogen), containing 800 U/ml GM-CSF (Leucomax) and 500 U/ml IL-4 (Peprotech). Cells were cultured for 5 or 6 days and the IL-4 and GM-CSF addition was repeated at day 2 to obtain a population of immature DCs. In some experiments FBS was replaced with human AB serum (Sigma). To obtain MDCs, IDCs were treated with a mixture of cytokines: 10 ng/ml TNF-alpha (Peprotech), 10 ng/ml IL-1beta (Peprotech), 1000 U/ml IL-6 (Peprotech), 1 microg/ml PGE2 (Sigma) and 800 U/ml GM-CSF for 24 hr (Jonuleit et al., 1997).
as §1
Microarray experiment. Total RNA was isolated using Trizol Reagent (Invitrogen) and further purified by using the RNeasy kit (Quiagen). cRNA was generated from 5 microg of total RNA by using the SuperScript Choice kit (Invitrogen) and the High Yield RNA transcription labeling kit (Enzo Diagnostics). Fragmented cRNA was hybridized to Affymetrix (Santa Clara, Calif.) arrays (HU95A) according to Affymetrix standard protocols. Preliminary data analysis was performed by the Microarray Core Facility at University of California at Irvine. Further analysis was performed using GeneSpring 6.0 (Silicon Genetics, Redwood City, Calif.). These analyses provided a signal for each specific transcript that was subsequently normalized by comparing to the median signal (arbitrary value of 1.0) obtained from the whole array.
as §2

[3] = test system: iNKT cells; assay: Expansion of iNKT cells by alpha-GalCer pulsed DC in autologous PBMC coculture; format: cell-based, human; settings: for Induction of iNKT (Valpha24+ Vbeta11+) cell expansion vs untreated DC: 5-day coculture
Description: FACS analysis. Cell staining was performed using alpha-GalCer-loaded APC-labeled CD1d-tetramer (kindly provided by A. Herbelin) and FITC-, Cyc- or PE-conjugated mAbs. Labeled antibodies for flow cytometry included anti-CD161-Cyc, CD8-PE, CD25-PE, CD1a-PE, CD1d-PE, CD86-PE, CD83-PE, CD206-PE, CD3- FITC, CD36-FITC, CD80-FITC, CD209-FITC, HLA-DR-FITC and isotype-matched controls (BD PharMingen), anti-Vbetal 1-PE and anti-Valpha24-FITC (Immunotech). The cells were assessed for fluorescence intensity using EPICS Elite flow cytometer (Beckman Coulter) or with FACS Calibur cytometer (Beckton Dickinson). Data analysis was performed using WinMDI software (Joseph Trotter, The Scripps Research Institute, La Jolla, Calif.).
Expansion of iNKT cells. IDCs were treated with or without the inflammatory mixture as described previously and with 100ng/ml alpha-GalCer for 24 hr to obtain alpha-GalCer-loaded MDC or IDC, respectively. alpha-GalCer pulsed IDCs or MDCs (2×10^5 cells/ml) were cocultured with 2×10^6 monocyte depleted autologous PBMC for 5 days in 24 well plates. The expansion of iNKT cells was monitored by quantifying Valpha24+ Vbetal 1+ and Valpha24+ CD161+ cells by FACS analysis. The specificity of CD1d-restricted NKT cells was also verified by alpha-GalCer loaded APC-labelled CD1d tetramer staining.

SMILES: O=C(Nc1ccccc1)c1cc([N+](=O)[O-])ccc1Cl [GW9662]
- Block of the more pronounced FABP4 increase in human AB serum ([1]; 5 microM GW9662, FBS replaced with human AB serum): blocked effectively
- Inhibition of FABP4 up-regulation by PPARg antagonist ([1]; 5 microM GW9662, untreated and 2.5 microM RSG treated DC): able to prevent the up-regulation of FABP4; also recorded: inhibited
- Inhibition of PPARg specific induction of CD1d by antagonist ([2]; 5 microM GW9662 with 2.5 microM RSG): inhibited

SMILES: O=S(=O)(c1ccccc1)N(CC(F)(F)F)c1ccc(C(O)(C(F)(F)F)C(F)(F)F)cc1 [T0901317]
- Induction of CD1d by receptor-specific agonists [2]: failed to activate CD1d

SMILES: CN(CCOc1ccc(CC2SC(=O)NC2=O)cc1)c1ccccn1 (stereo not shown) [RSG, Rosiglitazone]
- Induction of iNKT (Valpha24+ Vbeta11+) cell expansion vs untreated DC ([3]; alpha-GalCer loaded RSG treated IDC, depending on the donor): 1.5-10.25 fold
- Induction of iNKT (Valpha24+ Vbeta11+) cell expansion vs untreated DC ([3]; alpha-GalCer loaded RSG treated MDC as stimulator): 1.1-4 fold

SMILES: CCCCCCCCCCCCCCCCCCCCCCCCCC(=O)N[C@@H](CO[C@H]1O[C@H](CO)[C@H](O)[C@H](O)[C@H]1O)[C@H](O)[C@H](O)CCCCCCCCCCCCCC [alpha-GalCer, alpha-galactosyl-ceramide]
- Expansion of Valpha24+ Vbeta11+ iNKT cells by glycolipid loading of DC ([3]; DC pulsed with 100ng/ml alpha-GalCer for 24 hr, 5 days coculture): necessary for the potent induction; also recorded: remarkable expansion of iNKT cells

SMILES: Cc1cccc(Nc2cc(Cl)nc(SCC(=O)O)n2)c1C [Wy14,643]
- Induction of FABP4 by receptor-specific agonists [1]: much less potently

SMILES: COC(=O)c1ccccc1N[C@@H](Cc1ccc(OCCc2nc(-c3ccccc3)oc2C)cc1)C(=O)O [GW7845]
- Induction of FABP4 by receptor-specific agonists [1]: specifically up-regulated
- Induction of CD1d by receptor-specific agonists [2]: turn on gene expression
